Type in all cases: physicochemical
A short description of data set [1]: phase stability test of the crystalline forms. To be noted: for phases after storage: stored at room temperature and high temperature for 14 days. The method, then:
X-ray powder diffraction (XRPD): performed on Bruker D8 Advance diffractometer. The scan range 3-40° 20, step size 0.02020, and speed 0.2 s/step. Appropriate amounts of Crystalline Form of Compound A and Crystalline Form of Compound B in the present invention were used respectively for the phase stability test. The conditions were room temperature and high temperature (50° C.).

A short description of data set [2]: chemical stability test by HPLC analysis. On the procedure: HPLC data were collected on Ultimate 3000 under the following conditions: column, YMC-Pack ODS-AQ (4.6*250 mm*5 μm); column temperature, 40° C.; flow rate, 1.5 mL/min; detection wavelength, 254 nm; injection volume 3 uL; operation time, 40 min; mobile phase, a mixture of acetonitrile: 10 mM monopotassium phosphate=1:2. 1. Appropriate amounts of entinostat and Compound A in the present invention were used respectively for HPLC analysis, the purity of the compounds and the maximum single impurity (RRT=1.403) were calculated. 2. Chemical stability tests of entinostat and Compound A in the present invention were performed. The conditions were as follows: room temperature, high temperature (40° C.), high humidity (75% RH), and acceleration (40° C.-75% RH), and the storage time is 14 days. Using HPLC analysis, the change of maximum single impurity (RRT=1.403), the change of the main ingredient level and the change of total impurities number were studied.

The nature of data set [3]: apparent water solubility test. The following applies: for solubility at 3 min: thermodynamic from solid, apparent water solubility, water bath 25° C.±2° C., visual check for clear solution. On the procedure:
Entinostat, Compound A and Compound B in the present invention were tested for the apparent water solubility, and the operations were as follows:
Placed 3 mg of sample in a 100 mL Erlenmeyer flask in a water bath at 25° C.±2° C., added water by doubling, stirred at about 200 rpm/min, checked visually if the solution was clear. The interval between each addition of water was 3 minutes, and the maximum amount of water to add was 60 mL.

Where [4] appears, read: High temperature (50° C.), 7 days.
[5] abbreviates: High temperature (50° C.), 14 days.
Setting [6] is: High temperature (40° C.), 14 days, first line so headed (r10).
Setting [7] is: High temperature, 14 days, second line so headed (r12).
Setting [8] is: Speeded-up (acceleration, 40° C.-75% RH), 14 days.
The mark [9] stands for this setting: High temperature (40° C.), 14 days, first line so headed (r10), listed as Entinostat.
The mark [10] stands for this setting: High temperature, 14 days, second line so headed (r12), listed as Entinostat.
Setting [11] is: Room temperature, 0 days, listed as Entinostat.
The mark [12] stands for this setting: Room temperature, 14 days, listed as Entinostat.
Where [13] appears, read: Speeded-up (acceleration, 40° C.-75% RH), 14 days, listed as Entinostat.

Structures are written as SMILES. Some results are limits rather than exact numbers.

The values below come from patent US11208382B2, “Entinostat-containing compound, crystal form of compound thereof, and preparation method therefor and pharmaceutical composition thereof” (Hangzhou SoliPharma Co., Ltd., priority 2017, dated 2021).

As a reminder, the solubility is how much of the substance goes into solution per volume.

As for `Nc1ccccc1NC(=O)c1ccc(CNC(=O)OCc2cccnc2)cc1` [Compound A], the “Crystal form after storage” value is listed as “unchanged” in data set [1] (setting [4]); “unchanged” in data set [1] (setting [5]); “unchanged” in data set [1] (Room temperature, 7 days); “unchanged” in data set [1] (Room temperature, 14 days). Besides, the “phases after storage” value in data set [1] is given as “unchanged”. In addition, the “Main ingredient (%)” value in data set [2] (setting [6]) amounted to 99.9%; in data set [2] (setting [7]), 99.9%; in data set [2] (Room temperature, 0 days), 99.9%; in data set [2] (Room temperature, 14 days), 99.9%; in data set [2] (setting [8]) it was 99.9%. Besides, the “Number of impurities (≥0.04%)” value in data set [2] (setting [6]) is recorded as 0; in data set [2] (setting [7]) it was 0; in data set [2] (Room temperature, 0 days), 0; in data set [2] (Room temperature, 14 days) it was 0; in data set [2] (setting [8]), 0. Besides, the “RRT = 1.403 (%) maximum single impurity” value in data set [2] (setting [6]) worked out at 0.11%; in data set [2] (setting [7]), 0.11%; in data set [2] (Room temperature, 0 days), 0.12%; in data set [2] (Room temperature, 14 days), 0.13%; in data set [2] (setting [8]) it was 0.13%.
Turning to `Nc1ccccc1NC(=O)c1ccc(CNC(=O)OCc2cccnc2)cc1` [entinostat, N-(2-aminophenyl)-4-[N-(pyridin-3-yl)methoxycarbonyllaminomethyl]benzamide], the solubility at 3 min in data set [3] is less than 50 µg/mL. Besides, in data set [2] (14 days under room temperature, high temperature, high humidity and acceleration), the “impurity at RRT=1.403, main ingredient and number of impurities after storage” value is on record as “essentially unchanged”. For the same molecule, the “Main ingredient (%)” value in data set [2] (setting [9]), in data set [2] (setting [10]), in data set [2] (setting [11]), in data set [2] (setting [12]) and in data set [2] (setting [13]) was 98.4% in each case. Besides, the “Number of impurities (≥0.04%)” value in data set [2] (setting [9]) is 5; in data set [2] (setting [10]), 5; in data set [2] (setting [11]), 4; in data set [2] (setting [12]), 4; in data set [2] (setting [13]) it was 5. The “RRT = 1.403 (%) maximum single impurity” value is reported as 1.44% in data set [2] (setting [9]); 1.43% in data set [2] (setting [10]); 1.42% in data set [2] (setting [11]); 1.42% in data set [2] (setting [12]); 1.41% in data set [2] (setting [13]).
For the molecule `Nc1ccccc1NC(=O)c1ccc(CNC(=O)OCc2cccnc2)cc1.O=C(O)/C=C\C(=O)O` [Compound B], the solubility at 3 min in data set [3] was 1010 µg/mL. For the same molecule, the “Crystal form after storage” value is given as “unchanged” in data set [1] (setting [4]); “unchanged” in data set [1] (setting [5]); “unchanged” in data set [1] (Room temperature, 7 days); “unchanged” in data set [1] (Room temperature, 14 days). The “phases after storage” value in data set [1] is recorded as “unchanged”.
On to `Nc1ccccc1NC(=O)c1ccc(CNC(=O)OCc2cccnc2)cc1` [polymorph A, N-(2-aminophenyl)-4-[N-(pyridin-3-yl)methoxycarbonyllaminomethyl]benzamide], for which the “solubility in water (in words)” value in data set [3] (finding of the inventors on prior-art polymorphs, no method given) is given as “low”.
